# Reference: BindingDB's records for patent US10913744 (Dana-Farber Cancer Institute, 2021)
# Experiments:
# [1] = biological target: T1, Leucine-rich repeat serine/threonine-protein kinase 2 [1326-2527,G2019S] (Homo sapiens, UniProt Q5S007, G2019S); assay: Enzyme Assay
# T1 construct: 1326-2527
# Description: (§1) Samples were washed extensively and the incorporation of [γ-32P]ATP into Nictide was quantified by Cerenkov counting. IC50 values were calculated with GraphPad Prism using non-linear regression analysis.
# [2] = biological target: T2, Leucine-rich repeat serine/threonine-protein kinase 2 [1326-2527] (Homo sapiens, UniProt Q5S007); assay: Enzyme Assay
# T2 construct: 1326-2527
# T2 sequence (Q5S007 whole entry): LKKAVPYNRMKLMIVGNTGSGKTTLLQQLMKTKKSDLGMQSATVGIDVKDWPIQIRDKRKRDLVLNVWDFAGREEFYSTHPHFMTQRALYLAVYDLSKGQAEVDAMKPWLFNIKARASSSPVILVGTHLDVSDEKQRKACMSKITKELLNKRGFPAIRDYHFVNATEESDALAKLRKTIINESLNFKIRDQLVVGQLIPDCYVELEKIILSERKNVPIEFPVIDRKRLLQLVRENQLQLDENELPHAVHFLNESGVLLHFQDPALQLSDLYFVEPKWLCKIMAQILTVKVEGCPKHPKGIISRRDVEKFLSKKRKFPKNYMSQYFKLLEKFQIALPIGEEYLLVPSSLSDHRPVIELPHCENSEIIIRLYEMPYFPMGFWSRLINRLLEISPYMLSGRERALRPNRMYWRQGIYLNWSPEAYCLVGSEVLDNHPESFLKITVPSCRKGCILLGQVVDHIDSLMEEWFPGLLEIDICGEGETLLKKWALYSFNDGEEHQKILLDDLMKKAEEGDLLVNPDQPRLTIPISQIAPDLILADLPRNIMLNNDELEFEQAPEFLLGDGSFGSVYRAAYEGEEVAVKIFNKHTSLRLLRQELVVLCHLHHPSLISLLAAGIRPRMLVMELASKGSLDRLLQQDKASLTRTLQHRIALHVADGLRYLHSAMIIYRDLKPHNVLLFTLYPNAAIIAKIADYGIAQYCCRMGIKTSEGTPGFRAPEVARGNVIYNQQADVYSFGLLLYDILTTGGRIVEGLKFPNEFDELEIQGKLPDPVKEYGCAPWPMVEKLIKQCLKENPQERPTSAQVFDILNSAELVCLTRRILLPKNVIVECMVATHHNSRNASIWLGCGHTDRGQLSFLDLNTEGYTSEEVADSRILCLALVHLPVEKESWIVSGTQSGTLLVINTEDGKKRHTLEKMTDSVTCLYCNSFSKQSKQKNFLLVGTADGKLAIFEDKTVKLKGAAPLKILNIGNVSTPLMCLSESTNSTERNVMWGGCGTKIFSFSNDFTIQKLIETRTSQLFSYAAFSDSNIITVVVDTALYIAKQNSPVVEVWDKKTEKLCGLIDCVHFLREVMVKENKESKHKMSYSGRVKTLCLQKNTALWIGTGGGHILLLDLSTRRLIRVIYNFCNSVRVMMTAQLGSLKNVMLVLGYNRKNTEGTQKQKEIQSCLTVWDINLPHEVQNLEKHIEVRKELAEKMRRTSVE
# Description: as §1
# T1 sequence (Q5S007 1326-2527 G2019S): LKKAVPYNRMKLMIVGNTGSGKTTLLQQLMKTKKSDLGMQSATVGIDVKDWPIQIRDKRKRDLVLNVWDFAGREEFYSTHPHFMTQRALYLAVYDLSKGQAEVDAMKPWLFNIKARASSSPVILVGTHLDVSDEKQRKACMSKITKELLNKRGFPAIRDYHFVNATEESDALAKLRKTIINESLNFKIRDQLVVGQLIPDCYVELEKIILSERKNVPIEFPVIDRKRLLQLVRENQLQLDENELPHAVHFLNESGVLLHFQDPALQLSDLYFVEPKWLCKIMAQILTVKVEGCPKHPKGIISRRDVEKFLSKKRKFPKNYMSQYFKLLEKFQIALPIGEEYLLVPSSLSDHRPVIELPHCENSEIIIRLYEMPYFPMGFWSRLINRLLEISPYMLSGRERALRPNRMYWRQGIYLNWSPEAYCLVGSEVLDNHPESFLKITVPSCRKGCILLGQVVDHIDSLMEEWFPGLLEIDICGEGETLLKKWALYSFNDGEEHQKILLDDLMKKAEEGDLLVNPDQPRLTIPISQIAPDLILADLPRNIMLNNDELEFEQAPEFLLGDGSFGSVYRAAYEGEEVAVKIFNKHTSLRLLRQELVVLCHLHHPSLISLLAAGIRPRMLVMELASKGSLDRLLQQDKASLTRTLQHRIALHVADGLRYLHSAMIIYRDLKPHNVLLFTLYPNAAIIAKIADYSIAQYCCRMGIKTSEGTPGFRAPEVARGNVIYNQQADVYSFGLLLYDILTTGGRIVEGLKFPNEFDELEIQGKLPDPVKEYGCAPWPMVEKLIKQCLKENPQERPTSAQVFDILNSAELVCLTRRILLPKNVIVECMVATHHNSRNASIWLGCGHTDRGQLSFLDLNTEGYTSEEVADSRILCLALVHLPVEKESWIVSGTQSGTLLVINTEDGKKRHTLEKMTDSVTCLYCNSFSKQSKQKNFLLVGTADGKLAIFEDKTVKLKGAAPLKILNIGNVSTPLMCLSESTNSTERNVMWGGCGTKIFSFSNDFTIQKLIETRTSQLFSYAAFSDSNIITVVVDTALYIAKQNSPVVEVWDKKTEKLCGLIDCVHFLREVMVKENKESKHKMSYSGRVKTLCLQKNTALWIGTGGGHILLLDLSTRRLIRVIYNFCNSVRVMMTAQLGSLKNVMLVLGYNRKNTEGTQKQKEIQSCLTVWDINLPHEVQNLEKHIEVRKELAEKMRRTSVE
compound,measurement,setting,value
"CNc1nc(Nc2ccc(C(=O)N3CCOCC3)cc2OC)nc2[nH]ccc12 [US10913744, Compound 8]",IC50,[1],5.1 nM
same,IC50,[2],2.6 nM
